Legend:
[1] = test system: patients with progressive mCRPC who had not received chemotherapy; settings: COU-AA-302; cited from earlier work
[2] = test system: patients with mCRPC; experiment: PROpel (NCT03732820) double-blind randomized phase III trial: efficacy and patient-reported outcomes; assay type: in vivo, human
Description: The primary objective was efficacy as assessed by investigator-assessed imaging-based progression-free survival.
Patient population. Eligible patients were 18 years of age (or 19 years of age in South Korea) and had histologically or cytologically confirmed prostate adenocarcinoma with at least one documented metastatic lesion on either a bone scan, computed tomography, or magnetic resonance imaging scan. […] Docetaxel during neoadjuvant/adjuvant treatment for localized prostate cancer and the metastatic hormone-sensitive (mHSPC) stage of disease was permitted, as long as no signs of failure or disease progression occurred during or immediately after such treatment. Prior to mCRPC stage, treatment with second-generation antiandrogen agents (except abiraterone) without PSA progression/clinical progression/radiographic progression during treatment was allowed, provided the treatment was stopped at least 12 months before randomisation.
Trial design and interventions. This was a double-blind, placebo-controlled, phase Ill trial. Eligible patients were randomized (1:1) to treatment with abiraterone acetate (1000 mg once daily) in combination with either olaparib (300 mg twice daily) or placebo. All patients received prednisone or prednisolone (5 mg twice daily) as per the abiraterone acetate label requirement. Randomization was stratified by distant metastasis type (bone only/visceral/other) at baseline and by docetaxel treatment at the mHSPC stage of disease (yes or no). Study treatment continued until objective imaging-based progressive disease assessed by investigator (using Response Evaluation Criteria in Solid Tumors [RECIST 1.1] for soft tissue lesions and Prostate Cancer Working Group-3 [PCWG-3] criteria for bone lesions), unacceptable toxicity, or withdrawal of consent. Following objective disease progression, further treatment options were at the discretion of the investigator. […] Crossover from placebo to receive olaparib in combination with abiraterone acetate was not allowed.
Endpoints. The primary endpoint was imaging-based progression-free survival or death from any cause in the absence of disease progression. Sensitivity analysis by blinded independent central review and exploratory subgroup analysis of investigator-assessed imaging-based progression-free survival to assess consistency of treatment effect across potential prognostic factors were prespecified. Subgroups included HRRm status.
A key secondary endpoint was overall survival. Other secondary endpoints included time to first subsequent therapy or death (TFST), time to second progression or death (PFS2) and patient-reported outcomes. Further exploratory endpoints were objective response rate (ORR), prostate-specific antigen (PSA) response rate and time to PSA progression.
Statistical analysis. Efficacy was analyzed for the intention-to-treat population and safety was analyzed for all patients who received any amount of abiraterone acetate, olaparib, or placebo.
The first planned interim analysis of the primary endpoint of imaging-based progression-free survival is reported in this example. Imaging-based progression-free survival will be reported subsequently at a second data cutoff. Overall survival will be formally tested at all points, including a third data cutoff.
With a sample size of 796 patients, the first interim analysis was planned to occur when there had been approximately 379 progression or death events (47.6% maturity), to provide 94.1% power at a one-sided alpha of 0.014 to show a statistically significant difference in imaging-based progression-free survival between the trial arms, assuming a hazard ratio for progression or death of 0.68.
A multiple testing procedure controlled the overall one-sided type 1 error rate of 2.5%.

[3] = rPFS investigator assessment, FAS, All patients
[4] = rPFS, subgroup Age at randomisation: <65 years
[5] = rPFS, subgroup Age at randomisation: ≥65 years
[6] = rPFS, subgroup Docetaxel treatment at mHSPC stage
[7] = rPFS, subgroup HRRm Unknown, ctDNA test
[8] = rPFS, subgroup HRRm Unknown, tumour tissue test
[9] = rPFS, subgroup HRRm, ctDNA test (FoundationOne Liquid CDx)
[10] = rPFS, subgroup HRRm, tumour tissue test (FoundationOne CDx)
[11] = rPFS, subgroup No docetaxel treatment at mHSPC stage
[12] = rPFS, subgroup Non-HRRm, ctDNA test
[13] = rPFS, subgroup Non-HRRm, tumour tissue test
[14] = rPFS, subgroup Site of distant metastases: Bone only
[15] = rPFS, subgroup Site of distant metastases: Other
[16] = rPFS, subgroup Site of distant metastases: Visceral

## CC(=O)O[C@H]1CC[C@@]2(C)C(=CC[C@@H]3[C@@H]2CC[C@]2(C)C(c4cccnc4)=CC[C@@H]32)C1 [abiraterone acetate and placebo, (3β)-17-(3-pyridinyl) androsta-5,16-dien-3-yl acetate]
[1]
  median radiographic progression-free survival: 16.5 months
[2]; PFS2, number of events
  second progression or death events: 94
[2]; TFST, number of patients
  patients who received a first subsequent therapy: 221
[2]; human, in vivo
  Confirmed PSA response: 69.2%
  Median time to PSA progression: 12.0 months
[2]; intention-to-treat, first interim analysis, data cutoff Jul. 30, 2021
  median imaging-based progression-free survival by investigator assessment: 16.6 months
[2]; investigator assessment, FAS, All patients
  Median rPFS: 16.59 months
[2]; number of events
  progression or death events, blinded independent central review: 218
  progression or death events, investigator assessment: 226
[2]; of 161 patients (olaparib arm) / of 160 patients (placebo arm) with measurable disease at baseline
  ORR, number of patients with response: 77
[2]; overall survival analysis, number of deaths
  deaths: 121
[2]; patients with measurable disease at baseline
  ORR: 48.1%
[2]; prespecified sensitivity analysis
  median imaging-based progression-free survival by blinded independent central review: 16.4 months
[2]; [3]
  Number of events/total number of patients: 226/397
  Number of events/total number of patients (%): (56.9) %
[2]; [4]
  Number of events/total number of patients: 59/97
  Number of events/total number of patients (%): (60.8) %
[2]; [5]
  Number of events/total number of patients: 167/300
  Number of events/total number of patients (%): (55.7) %
[2]; [6]
  Number of events/total number of patients: 56/94
  Number of events/total number of patients (%): (59.6) %
[2]; [7]
  Number of events/total number of patients: 13/30
  Number of events/total number of patients (%): (43.3) %
[2]; [8]
  Number of events/total number of patients: 76/131
  Number of events/total number of patients (%): (58.0) %
[2]; [9]
  Number of events/total number of patients: 66/100
  Number of events/total number of patients (%): (66.0) %
[2]; [10]
  Number of events/total number of patients: 37/56
  Number of events/total number of patients (%): (66.1) %
[2]; [11]
  Number of events/total number of patients: 170/303
  Number of events/total number of patients (%): (56.1) %
[2]; [12]
  Number of events/total number of patients: 147/267
  Number of events/total number of patients (%): (55.1) %
[2]; [13]
  Number of events/total number of patients: 113/210
  Number of events/total number of patients (%): (53.8) %
[2]; [14]
  Number of events/total number of patients: 102/217
  Number of events/total number of patients (%): (47.0) %
[2]; [15]
  Number of events/total number of patients: 84/128
  Number of events/total number of patients (%): (65.6) %
[2]; [16]
  Number of events/total number of patients: 40/52
  Number of events/total number of patients (%): (76.9) %
[2]; subgroup Age at randomisation: <65 years
  Median rPFS: 16.36 months
[2]; subgroup Age at randomisation: ≥65 years
  Median rPFS: 16.66 months
[2]; subgroup Docetaxel treatment at mHSPC stage
  Median rPFS: 13.83 months
[2]; subgroup HRRm Unknown, tumour tissue test
  Median rPFS: 16.39 months
[2]; subgroup HRRm, ctDNA test (FoundationOne Liquid CDx)
  Median rPFS: 13.63 months
[2]; subgroup HRRm, tumour tissue test (FoundationOne CDx)
  Median rPFS: 16.62 months
[2]; subgroup No docetaxel treatment at mHSPC stage
  Median rPFS: 16.82 months
[2]; subgroup Non-HRRm, ctDNA test
  Median rPFS: 18.96 months
[2]; subgroup Non-HRRm, tumour tissue test
  Median rPFS: 16.59 months
[2]; subgroup Site of distant metastases: Bone only
  Median rPFS: 22.18 months
[2]; subgroup Site of distant metastases: Other
  Median rPFS: 13.70 months
[2]; subgroup Site of distant metastases: Visceral
  Median rPFS: 10.91 months

— patent US20250134887A1, “METHODS OF TREATING PROSTATE CANCER” (AstraZeneca AB, priority 2022, published 2025)
